pIC50: −log10 of the molar value. Converted amounts (≈) assume the structure as drawn.
How the values were obtained:
[1] = tested on: Bacillus subtilis; test: Antibacterial activity against Bacillus subtilis ATCC 6633 assessed as inhibition of bacterial growth incubated for 16 to 24 hrs by broth microdilution method; format: functional; conditions: time 16-24 hrs
[2] = tested on: Staphylococcus aureus; test: Antibacterial activity against methicillin-sensitive Staphylococcus aureus ATCC 25923 assessed as inhibition of bacterial growth incubated for 16 to 24 hrs by broth microdilution method; format: functional; conditions: time 16-24 hrs
[3] = tested on: Staphylococcus aureus; test: Antibacterial activity against Staphylococcus aureus ATCC 6538 assessed as inhibition of bacterial growth incubated for 16 to 24 hrs by broth microdilution method; format: functional; conditions: time 16-24 hrs
[4] = tested on: Staphylococcus epidermidis; test: Antibacterial activity against Staphylococcus epidermidis ATCC 12228 assessed as inhibition of bacterial growth incubated for 16 to 24 hrs by broth microdilution method; format: functional; conditions: time 16-24 hrs
[5] = tested on: Staphylococcus aureus; test: Antibacterial activity against methicillin-resistant Staphylococcus aureus CIP106760 assessed as inhibition of bacterial growth incubated for 16 to 24 hrs by broth microdilution method; format: functional; conditions: time 16-24 hrs
[6] = tested on: Enterococcus faecalis; test: Antibacterial activity against Enterococcus faecalis ATCC 29212 assessed as inhibition of bacterial growth incubated for 16 to 24 hrs by broth microdilution method; format: functional; conditions: time 16-24 hrs
[7] = tested on: Enterococcus faecalis; test: Antibacterial activity against vancomycin-resistant Enterococcus faecalis ATCC 51299 assessed as inhibition of bacterial growth incubated for 16 to 24 hrs by broth microdilution method; format: functional; conditions: time 16-24 hrs
[8] = Antioxidant activity assessed as DPPH radical scavenging activity at 10 ug/ml by DPPH assay relative to control; format: functional; conditions: dose 10.0 µg/ml
[9] = Toxicity in Saccharomyces cerevisiae ATCC 2601 assessed as reduction in cell viability measured after 24 hrs by microdilution method; conditions: for IC50 at 24 h: Saccharomyces cerevisiae, Saccharomyces cerevisiae ATCC 2601 cells
[10] = Toxicity in Artemia salina assessed as mortality at 10 ug/ml measured after 24 hrs; conditions: at 10 µg/mL
[11] = tested on: HaCaT; test: Cytotoxicity against human HaCaT cells assessed as reduction in cell viability at 50 uM after 24 hrs by MTT assay; format: cell-based
[12] = (§1) Cytotoxicity against human HaCaT cells assessed as cell viability at 50 uM after 24 hrs by MTT assay; format: cell-based; conditions: HaCaT cells, read-out: Activity
[13] = tested on: HaCaT; test: as §1; format: cell-based; conditions: hacat, 24 h, 50 µM

Row | Compound | MBC [1] [µM] | MIC [1] [µM] | MBC [2] [µM] | MIC [2] [µM] | MBC [3] [µM] | MIC [3] [µM] | MBC [4] [µM] | MIC [4] [µM] | MBC [5] [µM] | MIC [5] [µM] | MBC [6] [µM] | MIC [6] [µM] | MBC [7] [µM] | MIC [7] [µM] | Activity [8] [%] | IC50 at 24 h [9] [µM] | also measured
1 | Cc1ccc(C(c2cc([N+](=O)[O-])ccc2O)N2CCc3cc(Cl)ccc32)cc1 (stereo not drawn) | 151 (≈ 59.6 µg/mL) | 37.7 (≈ 14.9 µg/mL) | 36.8 (≈ 14.5 µg/mL) | 2.3 (≈ 0.908 µg/mL) | < 158 | 19.8 (≈ 7.82 µg/mL) | 37.7 (≈ 14.9 µg/mL) | 75.4 (≈ 29.8 µg/mL) | 4.59 (≈ 1.81 µg/mL) | 1.15 (≈ 0.454 µg/mL) | 9.19 (≈ 3.63 µg/mL) | 1.15 (≈ 0.454 µg/mL) | 9.19 (≈ 3.63 µg/mL) | 2.3 (≈ 0.908 µg/mL) | > 80 | – | –
2 | O=[N+]([O-])c1ccc(O)c(C(c2ccc(Cl)cc2)N2CCc3ccccc32)c1 (stereo not drawn) | – | – | 9.86 (≈ 3.75 µg/mL) | 2.47 (≈ 0.941 µg/mL) | 2.47 (≈ 0.941 µg/mL) | 1.23 (≈ 0.468 µg/mL) | – | – | < 1.23 | 1.23 (≈ 0.468 µg/mL) | > 9.86 | 1.23 (≈ 0.468 µg/mL) | 19.7 (≈ 7.5 µg/mL) | 1.23 (≈ 0.468 µg/mL) | – | > 100 | mortality at 24 h, 10 ug/ml [10]: < 15%
3 | NYSTATIN | – | – | – | – | – | – | – | – | – | – | – | – | – | – | – | – | pIC50 [9]: 5.48
4 | Cc1ccccc1C(c1cc([N+](=O)[O-])ccc1O)N1CCc2cc(Cl)ccc21 (stereo not drawn) | 4.71 (≈ 1.86 µg/mL) | < 1.18 | 39.6 (≈ 15.6 µg/mL) | 2.47 (≈ 0.975 µg/mL) | 4.95 (≈ 1.95 µg/mL) | 1.24 (≈ 0.49 µg/mL) | 2.36 (≈ 0.932 µg/mL) | < 1.18 | 2.47 (≈ 0.975 µg/mL) | 1.24 (≈ 0.49 µg/mL) | 9.89 (≈ 3.91 µg/mL) | 1.24 (≈ 0.49 µg/mL) | 158 (≈ 62.4 µg/mL) | 2.47 (≈ 0.975 µg/mL) | – | > 100 | Activity [11]: Toxic; viability at 24 h, 50 µM [12]: 3%
5 | Cc1ccccc1C(c1cc([N+](=O)[O-])ccc1O)N1CCc2cc(Br)ccc21 (stereo not drawn) | < 1.18 | < 1.18 | 35.6 (≈ 15.6 µg/mL) | 2.22 (≈ 0.975 µg/mL) | 4.45 (≈ 1.95 µg/mL) | 1.11 (≈ 0.488 µg/mL) | < 1.18 | < 1.18 | 1.11 (≈ 0.488 µg/mL) | 1.11 (≈ 0.488 µg/mL) | 8.89 (≈ 3.91 µg/mL) | 1.11 (≈ 0.488 µg/mL) | 142 (≈ 62.4 µg/mL) | 4.45 (≈ 1.95 µg/mL) | – | > 100 | Activity [11]: Toxic; Activity [13]: Toxic
6 | COc1ccc2c(c1)CCN2C(c1ccc(C)cc1)c1cc([N+](=O)[O-])ccc1O (stereo not drawn) | 4.71 (≈ 1.84 µg/mL) | < 1.18 | 160 (≈ 62.5 µg/mL) | 20 (≈ 7.81 µg/mL) | 80 (≈ 31.2 µg/mL) | 20 (≈ 7.81 µg/mL) | 4.71 (≈ 1.84 µg/mL) | < 1.18 | 40 (≈ 15.6 µg/mL) | 10 (≈ 3.9 µg/mL) | 160 (≈ 62.5 µg/mL) | 10 (≈ 3.9 µg/mL) | 160 (≈ 62.5 µg/mL) | 20 (≈ 7.81 µg/mL) | – | – | –
7 | Cc1ccccc1C(c1cc([N+](=O)[O-])ccc1O)N1CCc2cc([N+](=O)[O-])ccc21 (stereo not drawn) | 2.36 (≈ 0.957 µg/mL) | < 1.18 | 38.6 (≈ 15.6 µg/mL) | 1.2 (≈ 0.486 µg/mL) | 9.64 (≈ 3.91 µg/mL) | 2.41 (≈ 0.977 µg/mL) | 4.71 (≈ 1.91 µg/mL) | < 1.18 | 4.82 (≈ 1.95 µg/mL) | 1.2 (≈ 0.486 µg/mL) | 9.64 (≈ 3.91 µg/mL) | 1.2 (≈ 0.486 µg/mL) | 154 (≈ 62.4 µg/mL) | 2.41 (≈ 0.977 µg/mL) | – | 121 | mortality at 24 h, 10 ug/ml [10]: 3%
8 | CN[C@H](CC(C)C)C(=O)N[C@H]1C(=O)N[C@@H](CC(N)=O)C(=O)N[C@H]2C(=O)N[C@H]3C(=O)N[C@H](C(=O)N[C@H](C(=O)O)c4cc(O)cc(O)c4-c4cc3ccc4O)[C@H](O)c3ccc(c(Cl)c3)Oc3cc2cc(c3O[C@@H]2O[C@H](CO)[C@@H](O)[C@H](O)[C@H]2O[C@H]2C[C@](C)(N)[C@H](O)[C@H](C)O2)Oc2ccc(cc2Cl)[C@H]1O [VANCOMYCIN] | – | 1.95 (≈ 2.83 µg/mL) | – | 5.4 (≈ 7.83 µg/mL) | – | 1.35 (≈ 1.96 µg/mL) | – | 1.95 (≈ 2.83 µg/mL) | – | < 1.5 | – | 3.07 (≈ 4.45 µg/mL) | – | < 5.83 | – | – | –
9 | Cc1ccc(C(c2cc([N+](=O)[O-])ccc2O)N2CCc3cc(O)ccc32)cc1 (stereo not drawn) | > 9.43 | 2.4 (≈ 0.903 µg/mL) | 542 (≈ 204 µg/mL) | 67.7 (≈ 25.5 µg/mL) | 332 (≈ 125 µg/mL) | 166 (≈ 62.6 µg/mL) | 302 (≈ 114 µg/mL) | 37.8 (≈ 14.2 µg/mL) | 108 (≈ 40.7 µg/mL) | 67.7 (≈ 25.5 µg/mL) | 108 (≈ 40.7 µg/mL) | 135 (≈ 50.8 µg/mL) | 108 (≈ 40.7 µg/mL) | 135 (≈ 50.8 µg/mL) | > 80 | – | –
10 | Cc1ccccc1C(c1cc([N+](=O)[O-])ccc1O)N1CCc2c(C#N)cccc21 (stereo not drawn) | 18.9 (≈ 7.28 µg/mL) | 4.71 (≈ 1.82 µg/mL) | 81.1 (≈ 31.3 µg/mL) | 10.1 (≈ 3.89 µg/mL) | 20.3 (≈ 7.82 µg/mL) | 5.07 (≈ 1.95 µg/mL) | 18.9 (≈ 7.28 µg/mL) | 2.36 (≈ 0.91 µg/mL) | 20.3 (≈ 7.82 µg/mL) | 5.07 (≈ 1.95 µg/mL) | 81.1 (≈ 31.3 µg/mL) | 5.07 (≈ 1.95 µg/mL) | 162 (≈ 62.4 µg/mL) | 10.1 (≈ 3.89 µg/mL) | – | – | –
11 | Cc1ccc(C(c2cc([N+](=O)[O-])ccc2O)N2CCc3c(C#N)cccc32)cc1 (stereo not drawn) | 9.43 (≈ 3.63 µg/mL) | 4.71 (≈ 1.82 µg/mL) | 85.8 (≈ 33.1 µg/mL) | 10.7 (≈ 4.12 µg/mL) | 40.5 (≈ 15.6 µg/mL) | 20.3 (≈ 7.82 µg/mL) | 302 (≈ 116 µg/mL) | 37.8 (≈ 14.6 µg/mL) | 21.4 (≈ 8.25 µg/mL) | 2.68 (≈ 1.03 µg/mL) | 42.9 (≈ 16.5 µg/mL) | 2.68 (≈ 1.03 µg/mL) | 172 (≈ 66.3 µg/mL) | 5.36 (≈ 2.07 µg/mL) | 19 | – | –
12 | Cc1ccc(C(c2cc([N+](=O)[O-])ccc2O)N2CCc3cc(Br)ccc32)cc1 (stereo not drawn) | 9.43 (≈ 4.14 µg/mL) | 4.71 (≈ 2.07 µg/mL) | 81.1 (≈ 35.6 µg/mL) | 10.1 (≈ 4.44 µg/mL) | < 142 | 17.8 (≈ 7.82 µg/mL) | 4.71 (≈ 2.07 µg/mL) | 9.43 (≈ 4.14 µg/mL) | 20.3 (≈ 8.92 µg/mL) | 5.07 (≈ 2.23 µg/mL) | 81.1 (≈ 35.6 µg/mL) | 5.07 (≈ 2.23 µg/mL) | 162 (≈ 71.2 µg/mL) | 10.1 (≈ 4.44 µg/mL) | > 80 | – | –

— ChEMBL document CHEMBL4837201, “Increased antibacterial properties of indoline-derived phenolic Mannich bases” (Eur J Med Chem, 2021)
